The values below come from ChEMBL document CHEMBL4177599, “The antitubercular activity of various nitro(triazole/imidazole)-based compounds” (Bioorg Med Chem, 2017).

In brackets after ≈: the same amount, converted by molar mass. A value given as a limit tells only on which side of the number the result lay.

In series [1] the test system is Mycobacterium tuberculosis. Briefly: Bactericidal activity against Mycobacterium tuberculosis H37Rv ATCC 27294 assessed as concentration required for 2 log kill after 21 days under aerobic condition by colony forming assay. As to conditions: H37Rv ATCC 27294, 504 h. It is filed as functional.
The nature of series [2]: Protein binding in human plasma at 5 uM after 4 hrs by LC-MS/MS analysis.
A short description of series [3]: Half life in human liver S9 microsomes at 1 uM in absence of NADPH by LC-MS/MS analysis.
A short description of series [4]: Half life in human liver S9 microsomes at 1 uM in presence of NADPH by LC-MS/MS analysis.
For series [5], the system named is Mycobacterium tuberculosis. Briefly: Antitubercular activity against Mycobacterium tuberculosis H37Rv ATCC 27294 after 10 days under low oxygen condition followed by incubation under aerobic condition for 28 hrs by LORA. In kind it is functional, organism-based.
Another series has as its system Vero. The series is described as follows: Cytotoxicity against African green monkey Vero cells after 2 days by CellTiter-Glo luminescent cell viability assay. It is filed as ADME, cell-based. Particulars: Chlorocebus sabaeus, 48 h. (In general: ATP-based viability assays read luminescence as a measure of living cells.)
The subject of series [6] is Mycobacterium tuberculosis. The series is described as follows: Antitubercular activity against Mycobacterium tuberculosis H37Rv ATCC 27294 after 5 days under aerobic condition. In kind it is functional, organism-based. As to conditions: H37Rv ATCC 27294, 120 h.
The conditions of series [7]: human, caco-2, 2 h, 10 µM.
Description: Apparent permeability of the compound across basolateral side to apical side in human Caco2 cells monolayer at 10 uM after 2 hrs by LC-MS/MS analysis
For series [8] the following is noted: human, caco-2, 2 h, 10 µM. This is another data set of the same source.
Description: Apparent permeability of the compound across apical side to basolateral side in human Caco2 cells monolayer at 10 uM after 2 hrs by LC-MS/MS analysis
The test system of the next series is HepG2. The series is described as follows: Cytotoxicity against human HepG2 cells at 100 uM after 3 days by CellTiter-Glo luminescent cell viability assay. In kind it is cell-based. As to conditions: HepG2, 72 h.
The test system of series [9] is Mycobacterium tuberculosis. The series is described as follows: Antitubercular activity against luxABCDE expressing Mycobacterium tuberculosis H37Rv infected in mouse J774 macrophages assessed as log reduction in bacterial colonies at 20 uM measured after 4 days under aerobic condition by luminescence assay. It is filed as functional.

In the case of `O=C(Cn1cnc([N+](=O)[O-])n1)Nc1nc(-c2ccc(F)c(F)c2)cs1`, the MBC – broadly, the smallest concentration meeting the test's criterion for killing – in series [1] is 20 µM (≈ 7.33 µg/mL). Besides, the fraction unbound – broadly, free concentration divided by total concentration – at 4 h, 5 µM in series [2] was 0.002. Moreover, the half-life at 1 µM in [3] and in [4] was greater than 3 h in each case. Moreover, the half-maximal inhibitory concentration (IC50) (as a rule, the point on the concentration scale where inhibition reaches its midpoint) worked out at 8.7 µM in [5], 55 µM in the series with Vero, 27 µM in [6] and 78 µM with HepG2. Besides, the IC90 in series [5] and in series [6] was 39 µM each time. Moreover, the MIC – broadly, the smallest concentration in the dilution series that meets the test's criterion for growth inhibition – in series [5] was greater than 200 µM; in series [6], 37 µM (≈ 13.6 µg/mL). Also, the results for the Papp in [7] and in series [8] were 19.9 ×10⁻⁶ cm/s and 37.7 ×10⁻⁶ cm/s, respectively. The “log(activity)” value in [9] amounted to 2.4.
